Test results as given in patent US20090275527A1, “SKIN AGING TREATMENT COMPRISING PAEONIFLORIN” (LG HOUSEHOLD & HEALTH CARE LTD., priority 2004, published 2009).
Marks after values point to notes of the source that are not given here.

Key:
[1] = tested on: SOD (superoxide dismutase); experiment: Guinea pig back skin application for 30 days: SOD (nitrate reduction method); format: in vivo; details: 3 (w/v)% sample, Content by Equation 1 relative to blank group
Description: (§1) 10 g of stearic acid (C18H36O2), 70 mL of water and 20 mL of glycerol, each heated to 80, were mixed homogeneously. After stirring for about 1 minute, 3 (w/v)% of paeoniflorin or vitamin E (positive control group) was added. After adding 0.1 (w/v)% of methyl paraben, stirring was performed for 1 minute. 1 mL of KOH was slowly added. After considerable emulsification had proceeded, stirring was performed until the temperature reached about 50.
(§2) Guinea pigs were grouped, each group consisting of 3 males and 3 females. An area of 3×3 cm^2 was shaved from the back of each guinea pig. For each guinea pig, the left side was treated with the sample prepared above and the right side was treated as a negative control group and a positive control group. Application was performed at 8:00 H and 16:00 H each day. Application was performed for 30 days, at about 5 mg/cm^2 each. On the 31st day, skin was taken from the back of each animal. Subcutaneous fat tissue was removed and collagen and lipid peroxide contents were measured with […]. 3) Result
(§3) SOD (superoxide dismutase) and GSH-Px (total glutathione peroxidase) are important antioxidative enzymes in living organisms. […]
(§4) MDA was detected using thiobarboturic acid. GSH-Px and SOD contents were measured by DNTB (5,5′-dithio-bis-2-nitrobenzoic acid) and nitrate reduction methods, respectively. […]

guinea pig back skin = experiment: Guinea pig back skin application for 30 days: appearance, histology, collagen (HYP) content; format: in vivo; details: 3 (w/v)% sample; for Increase of collagenous fiber bundles (%) / Increase of collagen content in dermis (%): about 5 mg/cm^2 twice a day; for Increase of collagen content in dermis (%): HYP content
Description: as §1, §2
Back skin tissue was impregnated with paraffin and stained with HE (hematoxylin-eosin). Change of the skin tissue was observed. Skin collagen content was determined by adding 6 N hydrochloric acid to skin and measuring the HYP (hydroxyproline) content according to the chloramine-T oxidation method.

fibroblasts [2] = experiment: Prevention against skin cell death and aging (X-Gal staining, flow cytometer), fibroblasts; format: cell-based, mouse
Description: (§5) Skin tissue was taken from a red skin mouse 3 days or less old. Hypodermic tissue was removed and the skin was treated with 0.25% trypsin for 12 hours. The skin was separated into the epidermis and the dermis. The epidermis was cultured to 75% confluence in an epidermis culture medium (K-SFM). The dermis was further treated with trypsin at 37° C. for 2 hours. Fibroblasts were taken from the dermis and cultured to 75% confluence in a DMEM culture medium containing 10% serum. Cell growth and division status was confirmed by specifically staining cell DNA. β-Gal is a material for specifically marking aged skin cells. Young cells and cells in the resting phase are left intact and only aged cells are specifically stained. Cultured keratinocytes and fibroblasts were treated with a minimum amount of X-Gal, respectively, and stained at 37 for 24 hours. Aged skin cells were stained to deep blue in 2-4 hours and gave the best result in 12-16 hours (see Proc. Natl. Acad. Sci. USA, 1995, 92: 9363-7). Then, stained cells (aged cells), living cells and dead cells were counted with a flow cytometer. In Table 4, “blank” refers to the control group containing no cells.

[3] = tested on: GSH-Px (total glutathione peroxidase); experiment: Guinea pig back skin application for 30 days: GSH-Px (DNTB method); format: in vivo; details: 3 (w/v)% sample, Content by Equation 1 relative to blank group
Description: as §1, §2, §3, §4

Keratinocytes = experiment: Prevention against skin cell death and aging (X-Gal staining, flow cytometer), keratinocytes; format: cell-based, mouse
Description: as §5

MDA (malondialdehyde) = experiment: Guinea pig back skin application for 30 days: lipid peroxide MDA (thiobarboturic acid); format: in vivo; details: 3 (w/v)% sample, Content by Equation 1 relative to blank group
Description: as §1, §2, §3, §4

hairless mice [4] = experiment: Prevention of DNA impairment caused by UV (in vivo); details: after 6 days 1 J UVB
Description: Prevention effect (%)=(Control value−Test value)/(Control value)×100 [Equation 2] Paeoniflorin dissolved in 80% ethanol was applied to the back of hairless mice. After 6 days, 1 J UVB was irradiated. Skin cells were taken and DNA impairment was measured.

fibroblasts [5] = experiment: Effect on fibroblast cell activity (MTT analysis); format: cell-based, mouse; details: non-treated = 0
Description: Skin tissue was taken from a red skin mouse 3 days or less old. Hypodermic tissue was removed and the skin was treated with 0.25% trypsin for 12 hours. The skin was separated into the epidermis and the dermis. The epidermis was cultured to 75% confluence in an epidermis culture medium (K-SFM). The dermis was further treated with trypsin at 37° C. for 2 hours. Fibroblasts were taken from the dermis and cultured to 75% confluence in a DMEM culture medium containing 10% serum. Paeoniflorin prepared in Preparation Example 1 was dissolved in the cultured keratinocytes and fibroblasts and treated to 0.0004 M. Cell count was measured by MTT [3-(4,5-dimethylthiazol-2-yl)-2,5-diphenyltetrazolium bromide)] analysis to determine cell activity. A non-treated group and a group treated with 0.002 M vitamin C were tested as control groups.

hairless mice [6] = experiment: Prevention of wrinkles caused by UV; format: in vivo; details: 0.2% in 1,3-butylene glycol; UV 2MED, 12 weeks, three days a week
Description: Prevention effect of wrinkles caused by UV of paeoniflorin prepared in Preparation Example 1 was evaluated as follows using hairless mice. UV was irradiated to hairless mice with a solar stimulator at 2MED (minimum erythema dose). Irradiation was performed for 12 weeks, three days a week. Of the total of 10 mice, 0.2% paeoniflorin dissolved in 1,3-butylene glycol was applied to the sample treatment group and only 1,3-butylene glycol was applied to the control group. Wrinkles of each group were compared 12 weeks later.

[7] = tested on: normal human keratinocytes; experiment: Prevention of DNA impairment caused by UV (electrophoresis tail moment) in cultured keratinocytes; format: cell-based; details: for Average tail moment (n = 50) / Prevention effect (%): 12 hours, then 60 mJ UVB
Description: Prevention effect of DNA impairment caused by UV of paeoniflorin prepared in Preparation Example 1 was determined for normal human skin keratinocytes.
Cultured normal human keratinocytes were treated with paeoniflorin of concentrations thereof for 12 hours. The culture medium was removed and the cells were washed with PBS. 60 mJ UVB was irradiated and DNA impairment of the cells was checked. If there is DNA strand breakage inside the cell nucleus, an extended tail is shown toward the positive electrode during electrophoresis. Thus, impairment of DNA can be easily detected by electrophoresis. The average of tail moment of 50 randomly selected cells was used as a control value. The tail moment of paeoniflorin-treated cells was averaged. The control value and the resultant test value were put in Equation 2 below to calculate paeoniflorin's prevention effect of DNA impairment caused by UV.
Prevention effect (%)=(Control value−Test value)/(Control value)×100 [Equation 2]

[8] = 0.01% in 80% ethanol applied to the back
[9] = 0.1% in 80% ethanol applied to the back
[10] = 1% in 80% ethanol applied to the back

Molecule: Vitamin E [reference compound]
- SOD [1]: 7.17*
- Increase of collagenous fiber bundles (%) (guinea pig back skin): 10.4* %
- Increase of collagen content in dermis (%) (guinea pig back skin): 29.86* %
- Cell aging rate (fibroblasts [2]; 0.0004 M): 22.8%
- Cell death rate (fibroblasts [2]; 0.0004 M): 15.4%
- Cell growth rate (fibroblasts [2]; 0.0004 M): 9.96%
- GSH-Px [3]: 28.60*
- Cell aging rate (Keratinocytes; 0.0004 M): 20.1%
- Cell death rate (Keratinocytes; 0.0004 M): 10.5%
- Cell growth rate (Keratinocytes; 0.0004 M): 23.3%
- MDA (MDA (malondialdehyde)): 26.71*

Molecule: C[C@@]12C[C@@]3(O)O[C@@H](O1)[C@]1(COC(=O)c4ccccc4)[C@H]3C[C@@]12O[C@@H]1O[C@H](CO)[C@@H](O)[C@H](O)[C@H]1O [Paeoniflorin]
- SOD [1]: 8.58*
- Cell organelles observed in the dermis (guinea pig back skin): Expansion of RER (rough endoplasmie reticulum) and increase of mitochondria
- Histological observation (HE): change in the dermis (guinea pig back skin): an increase in collagenous fiber bundles was observed in the dermis
- Histological observation (HE): change in the epidermis (guinea pig back skin): no significant change in the epidermis
- Observation with the naked eyes of treated skin (guinea pig back skin): significant apparent improvement, such as soft and shiny skin
- Increase of collagenous fiber bundles (%) (guinea pig back skin): 18.1* %
- Increase of collagen content in dermis (%) (guinea pig back skin): 35.92* %
- Average tail moment (n = 50) (hairless mice [4]; [8]): 14.968 ± 5.883
- Prevention effect (%) (hairless mice [4]; [8]): 40.9%
- Average tail moment (n = 50) (hairless mice [4]; [9]): 18.930 ± 5.969
- Prevention effect (%) (hairless mice [4]; [9]): 25.3%
- Average tail moment (n = 50) (hairless mice [4]; [10]): 18.363 ± 5.463
- Prevention effect (%) (hairless mice [4]; [10]): 27.5%
- Cell aging rate (fibroblasts [2]; 0.0005 M): 17.2%
- Cell death rate (fibroblasts [2]; 0.0005 M): 11.5%
- Cell growth rate (fibroblasts [2]; 0.0005 M): 18.4%
- Increase in cell activity (%) (fibroblasts [5]; 0.0004 M): 25.7%
- GSH-Px [3]: 29.51*
- Not improved (number of mice, wrinkles compared to the control group) (hairless mice [6]): 0
- Significantly improved (number of mice, wrinkles compared to the control group) (hairless mice [6]): 6
- Slightly improved (number of mice, wrinkles compared to the control group) (hairless mice [6]): 4
- Cell aging rate (Keratinocytes; 0.0005 M): 24.7%
- Cell death rate (Keratinocytes; 0.0005 M): 12.3%
- Cell growth rate (Keratinocytes; 0.0005 M): 55.3%
- MDA (MDA (malondialdehyde)): 29.57*
- Average tail moment (n = 50) ([7]; 0.0001%): 7.951 ± 1.887
- Prevention effect (%) ([7]; 0.0001%): 16.9%
- Average tail moment (n = 50) ([7]; 0.001%): 7.710 ± 2.161
- Prevention effect (%) ([7]; 0.001%): 19.4%
- Average tail moment (n = 50) ([7]; 0.01%): 7.409 ± 2.395
- Prevention effect (%) ([7]; 0.01%): 22.6%
- Average tail moment (n = 50) ([7]; 0.1%): 7.320 ± 2.534
- Prevention effect (%) ([7]; 0.1%): 23.5%
- DNA impairment prevention effect ([7]; treatment concentration range of 0.0001% to 0.1%): at least 16.9%

Molecule: O=C1O[C@H]([C@@H](O)CO)C(O)=C1O [vitamin C, reference compound]
- Increase in cell activity (%) (fibroblasts [5]; 0.002 M): 14.4%
